Source: patent US11084814B2, “Pyrido[3, 4-d]pyrimidine derivative and pharmaceutically acceptable salt thereof” (Teijin Pharma Limited, priority 2016, dated 2021)

Key:
CDK2/cyclin A2 = biological target: T1, CDK2/cyclin A2 (Homo sapiens, UniProt P24941); assay: Human CDK2/cyclin A2 inhibitory activity (QS S Assist CDK2/Cyclin A2_FP Kit, IMAP fluorescent polarization); type: biochemical; conditions: read-out: CDK2 Activity symbol
T1 construct: purchased Carna Biosciences, Inc. QS S Assist CDK2/Cyclin A2_FP Kit
Method: Human CDK2/Cyclin A2 Inhibitory Activity
(§1) Each compound was analyzed for CDK2/cyclin A2 inhibitory activity with an assay kit (QS S Assist CDK2/Cyclin A2_FP Kit, available from Carna Biosciences, Inc.). This assay kit determines kinase activity on the basis of the IMAP technology by Molecular Devices. Specifically, the kinase activity is determined through quantification of a variation in fluorescent polarization caused by binding of a kinase-phosphorylated fluorescent substance to an IMAP-binding reagent.
An assay buffer was prepared by 10-fold dilution of the 10× assay buffer attached to the kit with distilled water, and each solution was prepared with the assay buffer. The assay buffer contained 20 mM HEPES (pH 7.4), 0.01% Tween 20, and 2 mM dithiothreitol. A test compound solution was prepared by dilution of the test compound with dimethyl sulfoxide (DMSO) to a concentration 100 times higher than the final concentration and then 25-fold dilution with the assay buffer to a concentration four times higher than the final concentration. An ATP/substrate/Metal solution was prepared by five-fold dilution of the 5×ATP/substrate/Metal solution attached to the kit with the assay buffer. An enzyme solution was prepared by dilution of the CDK2/cyclin A2 attached to the kit with the assay buffer to a concentration twice higher than the final concentration (final concentration of CDK2/cyclin A2: 2.5 ng/well). A detection reagent was prepared by five-fold dilution of 5×IMAP-binding buffer A with distilled water and 400-fold dilution of the IMAP-binding reagent with the diluted buffer.
(§2) The test compound solution (5 μL/well) and the ATP/substrate/Metal solution (5 μL/well) were added to a 384-well plate, and the enzyme solution or the assay buffer (10 μL/well) was added to the plate (total amount of the reaction mixture: 20 μL/well) for initiation of enzymatic reaction. […] The reaction was performed at room temperature for 60 minutes, and the detection reagent (60 μL/well) was then added to the plate, followed by further reaction for 30 minutes at room temperature under light shielding conditions. Subsequently, fluorescent polarization was determined with a microplate reader at an excitation wavelength of 485 nm and an emission wavelength of 535 nm.
The percent inhibition of enzyme activity was calculated for each test compound (note: enzyme activity=100% in the case of addition of the enzyme solution and addition of DMSO instead of the test compound solution, whereas enzyme activity […] in the case of addition of the assay buffer instead of the enzyme solution and addition of DMSO instead of the test compound solution). The percent inhibition of enzyme activity was fitted to a dose-response curve, to determine a 50% inhibitory concentration against CDK2/cyclin A2.
In each table, “+++” corresponds to IC50<10 nM, “++” 10 nM≤IC50<100 nM, and “+” 100 nM≤IC50.

CDK4/cyclin D3 = biological target: T2, CDK4/cyclin D3 (Homo sapiens, UniProt P11802); assay: Human CDK4/cyclin D3 inhibitory activity (QS S Assist CDK4/Cyclin D3_FP Kit, IMAP fluorescent polarization); type: biochemical; conditions: read-out: CDK4 Activity symbol
T2 construct: purchased Carna Biosciences, Inc. QS S Assist CDK4/Cyclin D3_FP Kit
Method: Human CDK4/Cyclin D3 Inhibitory Activity
as §1, with “CDK4/cyclin D3” for “CDK2/cyclin A2”, “CDK4/Cyclin D3_FP” for “CDK2/Cyclin A2_FP”
Each solution was prepared with the 10× assay buffer attached to the kit or a separately prepared assay buffer having the same composition as the assay buffer attached to the kit. An assay buffer was prepared by 10-fold dilution of the 10× assay buffer with distilled water. The assay buffer contains 20 mM HEPES (pH 7.4), 0.01% Tween20, and 2 mM dithiothreitol. A test compound solution was prepared by dilution of the test compound with dimethyl sulfoxide (DMSO) to a concentration 100 times higher than the final concentration and then 25-fold dilution with the assay buffer to a concentration four times higher than the final concentration. An ATP/substrate/Metal solution was prepared by five-fold dilution of the 5×ATP/substrate/Metal solution attached to the kit with the assay buffer. An enzyme solution was prepared by dilution of the CDK4/cyclin D3 attached to the kit with the assay buffer to a concentration twice higher than the final concentration (final concentration of CDK4/cyclin D3: 12.5 to 25 ng/well). A detection reagent was prepared by five-fold dilution of each of 5×IMAP-binding buffer A and 5×IMAP-binding buffer B with distilled water, mixing of IMAP-binding buffer A with IMAP-binding buffer B at a ratio of 85:15, and 400-fold dilution of the IMAP-binding reagent with the mixed buffer.
as §2, with “for 45” for “for 60”
The percent inhibition of enzyme activity was calculated for each test compound (note: enzyme activity=100% in the case of addition of the enzyme solution and addition of DMSO instead of the test compound solution, whereas enzyme activity […] in the case of addition of the assay buffer instead of the enzyme solution, and addition of DMSO instead of the test compound solution). The percent inhibition of enzyme activity was fitted to a dose-response curve, to determine a 50% inhibitory concentration against CDK4/cyclin D3.
In each table, “+++” corresponds to IC50<10 nM. “++” 10 nM […] IC50<100 nM, and “+” 100 nM≤IC50.

T2 sequence (P11802 whole entry): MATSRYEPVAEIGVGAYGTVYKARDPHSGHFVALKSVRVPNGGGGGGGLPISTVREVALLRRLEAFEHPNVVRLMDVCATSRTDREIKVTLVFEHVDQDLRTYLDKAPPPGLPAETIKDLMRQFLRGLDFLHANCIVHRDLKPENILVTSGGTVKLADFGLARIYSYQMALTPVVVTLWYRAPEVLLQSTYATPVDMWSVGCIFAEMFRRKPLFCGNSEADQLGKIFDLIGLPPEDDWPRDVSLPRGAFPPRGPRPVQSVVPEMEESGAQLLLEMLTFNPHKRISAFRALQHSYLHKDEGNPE
T2 sequence (P30281 whole entry partner): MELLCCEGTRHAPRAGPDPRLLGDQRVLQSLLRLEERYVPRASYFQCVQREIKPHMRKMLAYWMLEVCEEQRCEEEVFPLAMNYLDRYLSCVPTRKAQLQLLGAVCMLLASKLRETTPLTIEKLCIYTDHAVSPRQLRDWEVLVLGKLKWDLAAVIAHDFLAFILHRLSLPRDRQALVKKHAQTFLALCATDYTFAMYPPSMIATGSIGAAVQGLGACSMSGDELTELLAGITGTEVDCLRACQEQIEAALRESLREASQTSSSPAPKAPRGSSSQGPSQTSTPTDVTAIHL

| IC50 (CDK2/cyclin A2) | IC50 (CDK4/cyclin D3) | SMILES |
| --- | --- | --- |
| ≥ 100 nM | < 10 nM | C[C@@H](O)c1cc2cnc(Nc3ccc(O[C@H]4CCCN(CCO)C4)cn3)nc2c(N2CC[C@@H](F)C2)n1 [Compound 254] |
| ≥ 100 nM | < 10 nM | C[C@@H](O)c1cc2cnc(Nc3ccc4c(n3)CCN(CCO)C4)nc2c(N2CCC(F)(F)CC2)n1 [Compound 81] |
| ≥ 100 nM | < 10 nM | OCCN1CCN(Cc2ccc(Nc3ncc4cc(C(F)F)nc(N5CCC(O)CC5)c4n3)nc2)CC1 [Compound 129] |
| ≥ 100 nM | < 10 nM | C[C@@H](O)c1cc2cnc(Nc3ccc(N4CCNCC4)cn3)nc2c(N2CCOC[C@@H]2C)n1 [Compound 288] |
| 10 to 100 nM | < 10 nM | C[C@@H](O)c1cc2cnc(Nc3ccc(C(=O)N4CCCN(C)CC4)cn3)nc2c(N2CCCCC2)n1 [Compound 304] |
| ≥ 100 nM | < 10 nM | Cc1nc(Nc2ncc3cc([C@@H](C)O)nc(N4CCCC4)c3n2)ccc1N1CCN(C)CC1 [Compound 53] |
| ≥ 100 nM | < 10 nM | C[C@@H](O)c1cc2cnc(Nc3ccc(OC4CCNCC4)cn3)nc2c(N2CC[C@@H](F)C2)n1 [Compound 221] |
| ≥ 100 nM | < 10 nM | C[C@@H](O)c1cc2cnc(Nc3ccc4c(n3)CCN(C(=O)Cn3cnnc3)C4)nc2c(N2CCCCC2)n1 [Compound 333] |
| ≥ 100 nM | < 10 nM | C[C@@H](O)c1cc2cnc(Nc3ccc(CN4CCN(CCO)CC4)cn3)nc2c(N2CCCC2)n1 [Compound 48] |
| ≥ 100 nM | < 10 nM | C[C@@H](O)c1cc2cnc(Nc3ccc4c(n3)CCN(C(=O)Cn3ccnc3)C4)nc2c(N2CCCCC2)n1 [Compound 286] |
| ≥ 100 nM | 10 to 100 nM | C[C@@H](O)c1cc2cnc(Nc3ccc(CN4CCC(O)CC4)cn3)nc2c(N2CCOCC2)n1 [Compound 67] |
| ≥ 100 nM | < 10 nM | CCN1CCN(Cc2ccc(Nc3ncc4cc([C@@H](C)O)nc(N5CCCCC5)c4n3)nc2)CC1 [Compound 122] |
| ≥ 100 nM | < 10 nM | C[C@@H](O)c1cc2cnc(Nc3ccc(CN4CCN(CCO)CC4)cn3)nc2c(C2=CCCCC2)n1 [Compound 156] |
| 10 to 100 nM | < 10 nM | C[C@@H](O)c1cc2cnc(Nc3ccc(CN4CCN(C)CC4)cn3)nc2c(N2CCCC2(C)C)n1 [Compound 173] |
| ≥ 100 nM | < 10 nM | C[C@@H](O)c1cc2cnc(Nc3ccc(CN4CCNCC4)cn3)nc2c(N2CCCCC2)n1 [Compound 155] |
| ≥ 100 nM | < 10 nM | C[C@@H](O)c1cc2cnc(Nc3ccc(CN4CCN(CCO)CC4)cn3)nc2c(N2CCC(C(F)(F)F)CC2)n1 [Compound 84] |
| ≥ 100 nM | < 10 nM | C[C@@H](O)c1cc2cnc(Nc3ccc4c(n3)CCN(C(=O)C3CCNCC3)C4)nc2c(N2CCCCC2)n1 [Compound 147] |
| ≥ 100 nM | < 10 nM | C[C@@H](O)c1cc2cnc(Nc3ccc(N4CCN(C)CC4=O)cn3)nc2c(N2CCCCC2)n1 [Compound 72] |
| ≥ 100 nM | < 10 nM | C[C@@H](O)c1cc2cnc(Nc3ccc4c(n3)CCN(CCN(C)C)C4)nc2c(N2CCC(F)CC2)n1 [Compound 61] |
| ≥ 100 nM | < 10 nM | C[C@@H](O)c1cc2cnc(Nc3ccc(CN4CCN(CCO)CC4)cn3)nc2c(N2CCC(F)(F)CC2)n1 [Compound 79] |
| ≥ 100 nM | < 10 nM | C[C@@H](O)c1cc2cnc(Nc3ccc4c(n3)CCN(CCCO)C4)nc2c(N2CCCCC2)n1 [Compound 130] |

The next lines start with the compound.

| SMILES | IC50 (CDK2/cyclin A2) | IC50 (CDK4/cyclin D3) |
| --- | --- | --- |
| C[C@@H](O)c1cc2cnc(Nc3ccc(CN4CCN(C)CC4)cn3)nc2c(N2CC[C@@H](F)C2)n1 [Compound 116] | ≥ 100 nM | < 10 nM |
| C[C@@H](O)c1cc2cnc(Nc3ccc4c(n3)CCN(C(=O)Cn3cncn3)C4)nc2c(N2CCCCC2)n1 [Compound 332] | ≥ 100 nM | 10 to 100 nM |
| C[C@@H](O)c1cc2cnc(Nc3ccc4c(n3)CCN(C(=O)[C@@H]3CCN(C)C3)C4)nc2c(N2C3CCC2CC3)n1 [Compound 226] | ≥ 100 nM | < 10 nM |
| O=C1CCNCCN1c1ccc(Nc2ncc3cc(C4COC4)nc(N4CCCCC4)c3n2)nc1 [Compound 276] | ≥ 100 nM | < 10 nM |
| CN(C)CCN1CCc2nc(Nc3ncc4cc(CCO)nc(N5CCCCC5)c4n3)ccc2C1 [Compound 110] | ≥ 100 nM | < 10 nM |
| OCCN1CCN(Cc2ccc(Nc3ncc4cc(C(F)F)nc(N5CCCCC5)c4n3)nc2)CC1 [Compound 128] | ≥ 100 nM | < 10 nM |
| CN1CCN(c2ccc(Nc3ncc4cc(CO)nc(-c5ccccc5)c4n3)nc2)CC1 [Compound 6] | ≥ 100 nM | < 10 nM |
| O=C1CCNCCN1c1ccc(Nc2ncc3cc(CO)nc(N4CCCCC4)c3n2)nc1 [Compound 244] | ≥ 100 nM | < 10 nM |
| C[C@@H](O)c1cc2cnc(Nc3ccc(N4CCNCC4=O)cn3)nc2c(N2CCC2)n1 [Compound 50] | ≥ 100 nM | 10 to 100 nM |
| C[C@@H](O)c1cc2cnc(Nc3ccc(CN4CCN(CCO)CC4)cn3)nc2c(N2C3CCC2CC3)n1 [Compound 103] | ≥ 100 nM | < 10 nM |
| C[C@@H](O)c1cc2cnc(Nc3ccc(N4CCNCC4=O)cn3)nc2c(N2C3CCC2CC3)n1 [Compound 256] | ≥ 100 nM | < 10 nM |
| C[C@@H](O)c1cc2cnc(Nc3ccc(N4CCNCC4=O)cn3)nc2c(N2CCCCC2)n1 [Compound 52] | ≥ 100 nM | < 10 nM |
| C[C@@H](O)c1cc2cnc(Nc3ccc(CN4CCN(C)CC4)cn3)nc2c(N2CCOCC2)n1 [Compound 145] | ≥ 100 nM | 10 to 100 nM |
| C[C@@H](O)c1cc2cnc(Nc3ccc4c(n3)CCN(C(=O)[C@@H]3CCCCN3C)C4)nc2c(N2C3CCC2CC3)n1 [Compound 237] | ≥ 100 nM | < 10 nM |
| C[C@@H](O)c1cc2cnc(Nc3ccc4c(n3)CCN(C(=O)CN3CC[C@@H](O)C3)C4)nc2c(N2C3CCC2CC3)n1 [Compound 232] | ≥ 100 nM | < 10 nM |
| C[C@@H](O)c1cc2cnc(Nc3ccc(N4CCCNCC4=O)cn3)nc2c(N2CCCCCC2)n1 [Compound 307] | 10 to 100 nM | < 10 nM |
| C[C@H]1CCN(c2nc([C@@H](C)O)cc3cnc(Nc4ccc(N5CCCNCC5=O)cn4)nc23)C1 [Compound 258] | ≥ 100 nM | < 10 nM |
